The source of these data is ChEMBL document CHEMBL4831538, “Repositioning of the Anthelmintic Drugs Bithionol and Triclabendazole as Transthyretin Amyloidogenesis Inhibitors” (J Med Chem, 2021).

In assay [1] the target is T1, Transthyretin (Homo sapiens, UniProt P02766, V50M). Briefly: Binding affinity to TTR V30M mutant (unknown origin) expressed in Escherichia coli incubated for 60 mins by tryptophan intrinsic fluorescence method. Particulars: read-out: Kd(app).
The subject of assay [2] is Transthyretin (Homo sapiens), P02766 [V142I]. Briefly: Stabilization of TTR V142I mutant (unknown origin) expressed in Escherichia coli assessed as reduction in trypsin-induced aggregation incubated for 3 to 4 days by absorbance method. The conditions noted are these: time 3-4 day.
The test system of assay [3] is Transthyretin (Homo sapiens), P02766 [V50M]. The assay can be described thus: Stabilization of TTR V30M mutant (unknown origin) assessed as suppression of TTR tetramer dissociation at 1 to 10 uM incubated for 9 days by glutaraldehyde cross-linking assay based SDS-PAGE analysis. The conditions noted are these: dose 1-10 µM, time 9.0 day.
The test system is the same in assay [4]. Briefly: Stabilization of TTR V30M mutant (unknown origin) assessed as suppression of TTR tetramer dissociation at 3 uM incubated for 9 days by glutaraldehyde cross-linking assay based SDS-PAGE analysis relative to control. The conditions noted are these: time 9.0 day.
Assay [5] shares this test system. Briefly: (§1) Stabilization of TTR V30M mutant (unknown origin) assessed as acid-mediated protein aggregation inhibition ratio incubated for 1 week by absorbance method. Particulars: time 1.0 weeks.
For assay [6], the target named is T2, Transthyretin (Homo sapiens, UniProt P02766). Briefly: Stabilization of wild type TTR (unknown origin) expressed in Escherichia coli assessed as reduction in methanol-induced aggregation at 50 uM incubated for 60 min by absorbance method.
The target in assay [7] is T2, Transthyretin. The assay can be described thus: Stabilization of wild type TTR (unknown origin) expressed in Escherichia coli assessed as reduction in methanol-induced aggregation incubated for 60 min by absorbance method.
Assay [8] addresses T1, Transthyretin. Described as §1.
Assay [9] has as its target T1, Transthyretin. Briefly: Binding affinity to TTR V30M mutant (unknown origin) by isothermal titration calorimetry.

The source made the active and inactive calls. The calls are words filed in the database; no cut-off is given here.

`CC(C)=COc1ccc(/C=C/C(O)c2ccc(OC=C(C)C)cc2OCC(=O)O)cc1` (stereo not drawn): the Kd on Transthyretin [1] worked out at 6.5 µM.

As for `Cc1ccc(C(=O)c2cc(O)c(O)c([N+](=O)[O-])c2)cc1`, the Activity result in assay [2] is “Dose-Dependent Effect”; in assay [4] it was 100%; in [5] it was “Dose-Dependent Effect”. For the same compound, the outcome in [3] was Active.

Turning to `O=C(O)c1cc(-c2ccc(F)cc2F)ccc1O`, the result in assay [3] was Active. In addition, the Activity result in assay [5] is “Dose-Dependent Effect”.

Consider `O=C(O)c1ccc2nc(-c3cc(Cl)cc(Cl)c3)oc2c1`, for which the outcome (on Transthyretin [6]; in [3]) was Active. Further, the Activity entry in assay [2] is “Dose-Dependent Effect”; in assay [4] it was 100%; in assay [5], “Dose-Dependent Effect”.

As for `Oc1ccc(Cl)cc1Cc1cc(Cl)ccc1O`, the result in [3] was Active.

In the case of `CC(C)c1ccc2oc3nc(N)c(C(=O)O)cc3c(=O)c2c1` [AMLEXANOX], the Kd on Transthyretin [1] stood at 20 µM.

Turning to `Oc1c(Cl)cc(Cl)cc1Sc1cc(Cl)cc(Cl)c1O` [BITHIONOL], the IC50 is 3 µM on Transthyretin [7] and 2.4 µM on Transthyretin [8]. Besides, the Activity entry in assay [2] is “Dose-Dependent Effect”; in [4], 100%; in assay [5] it was “Dose-Dependent Effect”. The outcome in assay [3] was Active. Moreover, the Kd on Transthyretin [1] was 1.1 µM; at Transthyretin [9] it was 0.062 µM.

Consider `CSc1nc2cc(Cl)c(Oc3cccc(Cl)c3Cl)cc2[nH]1` [TRICLABENDAZOLE], for which the outcome (on Transthyretin [6]; in assay [3]) was Active. The Activity result was “Dose-Dependent Effect” in [2], 100% in assay [4] and “Dose-Dependent Effect” in assay [5]. At Transthyretin [8], the IC50 turned out to be 3.5 µM.
